Data as given in patent US20090143279A1 (priority 2007, published 2009).
Like-named read-outs stand apart in the source and are kept apart here.

What was measured:
reactive oxygen species = format: cell-based, mouse
nuOXPHOS transcripts = format: cell-based, mouse
cytochrome c = format: cell-based, mouse
[1] = system: cellular dehydrogenase activity
[2] = system: mitochondrial membrane potential; format: cell-based, mouse
mtOXPHOS transcripts = format: cell-based, mouse
OXPHOS gene expression = format: cell-based, mouse
[3] = normalized composite Z-score vs mock-treated (DMSO) wells, Conc 20 μM
[4] = 13.16 μM, composite Z-score vs DMSO
[5] = 20 μM, composite Z-score vs DMSO
[6] = composite Z-score vs DMSO, Conc 20 μM
[7] = Conc 20 μM, normalized score vs mock-treated (DMSO) wells
[8] = composite Z-score vs mock-treated (DMSO) wells, Conc 20 μM
[9] = composite Z-score vs DMSO, Conc 15.42 μM

## COc1ccc(-c2cc(=O)c3c(O)cc(O)c(-c4cc(-c5cc(=O)c6c(O)cc(O)cc6o5)ccc4OC)c3o2)cc1 [isoginkgetin]
Reactive oxygen species; [3]
  ROS: 1.106
nuOXPHOS transcripts; [3]
  nucOX: −0.318
Cytochrome c; [3]
  cyt c: −0.400
[1]; [3]
  MTT: −1.024
[2]; [3]
  ΔΨm: −4.387
mtOXPHOS transcripts; [3]
  mitoOX: −1.087
C2C12 myotubes; [3]
  Viability: 2.182
OXPHOS gene expression; [3]
  GE-HTS: −0.589

## CC(COc1ccccc1)N(CCCl)Cc1ccccc1 (stereo not shown) [phenoxybenzamine]
Reactive oxygen species; [4]
  ROS: 0.444
Reactive oxygen species; [5]
  ROS: 0.256
nuOXPHOS transcripts; [4]
  nucOX: −0.306
nuOXPHOS transcripts; [5]
  nucOX: −1.077
Cytochrome c; [4]
  cyt c: −0.470
Cytochrome c; [5]
  cyt c: −0.188
[1]; [4]
  MTT: −0.159
[1]; [5]
  MTT: −1.049
[2]; [4]
  ΔΨm: −0.422
[2]; [5]
  ΔΨm: 0.021
mtOXPHOS transcripts; [4]
  mitoOX: 0.167
mtOXPHOS transcripts; [5]
  mitoOX: −1.462
C2C12 myotubes; [4]
  Viability: −0.751
C2C12 myotubes; [5]
  Viability: −0.906
OXPHOS gene expression; [4]
  GE-HTS: −0.155
OXPHOS gene expression; [5]
  GE-HTS: −1.302

## CC(=O)c1ccc(O)c(CC=C(C)C)c1 [3-prenyl-4-hydroxyacetophenone]
Reactive oxygen species; [6]
  ROS: 2.418
nuOXPHOS transcripts; [6]
  nucOX: 0.477
Cytochrome c; [6]
  cyt c: 0.220
[1]; [6]
  MTT: −1.066
[2]; [6]
  ΔΨm: −0.010
mtOXPHOS transcripts; [6]
  mitoOX: 0.804
C2C12 myotubes; [6]
  Viability: −0.696
OXPHOS gene expression; [6]
  GE-HTS: 0.607

## CC(=O)Oc1ccccc1C(=O)Oc1ccccc1C(=O)O [diplosalsalate]
Reactive oxygen species; [7]
  ROS (composite Z-score): 0.306
nuOXPHOS transcripts; [7]
  nucOX (composite Z-score): −0.994
Cytochrome c; [7]
  cyt c (composite Z-score): 0.787
[1]; [7]
  MTT (composite Z-score): −0.860
[2]; [7]
  ΔΨm (composite Z-score): 0.008
mtOXPHOS transcripts; [7]
  mitoOX (composite Z-score): −0.766
C2C12 myotubes; [7]
  Viability (composite Z-score): −0.204
OXPHOS gene expression; [7]
  GE-HTS (composite Z-score): −1.001

## CNC(=O)ON=C(C)SC [methomyl]
Reactive oxygen species; [6]
  ROS: 0.231
nuOXPHOS transcripts; [6]
  nucOX: −0.805
Cytochrome c; [6]
  cyt c: −0.007
[1]; [6]
  MTT: −1.481
[2]; [6]
  ΔΨm: −0.493
mtOXPHOS transcripts; [6]
  mitoOX: −0.317
C2C12 myotubes; [6]
  Viability: 1.361
OXPHOS gene expression; [6]
  GE-HTS: −0.703

## COc1ccccc1/C=C/C(=O)O [coumarinic acid methyl ether]
Reactive oxygen species
  ROS (composite Z-score): 0.917
nuOXPHOS transcripts
  nucOX (composite Z-score): 0.031
Cytochrome c
  cyt c (composite Z-score): 0.170
[1]
  MTT (composite Z-score): −2.099
[2]
  ΔΨm (composite Z-score): −1.070
mtOXPHOS transcripts
  mitoOX (composite Z-score): 0.383
C2C12 myotubes
  Viability (composite Z-score): −0.844
OXPHOS gene expression
  GE-HTS (composite Z-score): 0.143

## COc1cc(-c2coc3cc(OC)c(OC)c(OC)c3c2=O)cc(OC)c1OC [irigenin trimethyl ether]
Reactive oxygen species; [8]
  ROS: −0.074
nuOXPHOS transcripts; [8]
  nucOX: −0.790
Cytochrome c; [8]
  cyt c: 0.129
[1]; [8]
  MTT: −0.808
[2]; [8]
  ΔΨm: −0.174
mtOXPHOS transcripts; [8]
  mitoOX: −0.699
C2C12 myotubes; [8]
  Viability: −0.060
OXPHOS gene expression; [8]
  GE-HTS: −0.792

## O=C(O)c1cccc(O)c1O [pyrocatechuic acid]
Reactive oxygen species; [6]
  ROS: 1.147
nuOXPHOS transcripts; [6]
  nucOX: −0.324
Cytochrome c; [6]
  cyt c: −0.018
[1]; [6]
  MTT: −1.800
[2]; [6]
  ΔΨm: −1.204
mtOXPHOS transcripts; [6]
  mitoOX: −0.367
C2C12 myotubes; [6]
  Viability: −1.076
OXPHOS gene expression; [6]
  GE-HTS: −0.386

## C=C1CCC2C(CC2(C)C)C(=C)CCC1=NO (stereo not shown) [5-hydroxyiminoisocaryophyllene]
Reactive oxygen species; [8]
  ROS: 0.922
nuOXPHOS transcripts; [8]
  nucOX: −0.273
Cytochrome c; [8]
  cyt c: 0.117
[1]; [8]
  MTT: 1.325
[2]; [8]
  ΔΨm: 0.413
mtOXPHOS transcripts; [8]
  mitoOX: 0.421
C2C12 myotubes; [8]
  Viability: 0.181
OXPHOS gene expression; [8]
  GE-HTS: −0.023

## NC1(C(=O)O)CCCC1 [cycloleucine]
Reactive oxygen species; [5]
  ROS: 0.024
nuOXPHOS transcripts; [5]
  nucOX: −0.495
Cytochrome c; [5]
  cyt c: 0.822
[1]; [5]
  MTT: −1.310
[2]; [5]
  ΔΨm: −0.765
mtOXPHOS transcripts; [5]
  mitoOX: −1.397
C2C12 myotubes; [5]
  Viability: −1.300
OXPHOS gene expression; [5]
  GE-HTS: −0.839

## CC(=O)O[C@H]1C[C@@H](OC(C)=O)C(C)(C)C2CC(=O)[C@]3(C)C(CC[C@@]4(C)[C@H](C(=O)O)OC(=O)C5OC543)[C@]21C (stereo partly shown) [deacetoxy(7)-7-oxokhivorinic acid]
Reactive oxygen species; [3]
  ROS: 2.352
nuOXPHOS transcripts; [3]
  nucOX: −0.937
Cytochrome c; [3]
  cyt c: 0.816
[1]; [3]
  MTT: −1.282
[2]; [3]
  ΔΨm: −0.539
mtOXPHOS transcripts; [3]
  mitoOX: −0.664
C2C12 myotubes; [3]
  Viability: −0.174
OXPHOS gene expression; [3]
  GE-HTS: −0.919

## COC(=O)c1c(C)c2c(c(C)c1OC)OC(=O)c1c(C)c(Cl)c(OC)c(Cl)c1O2 [leoidin dimethyl ether]
Reactive oxygen species; [3]
  ROS: −0.121
nuOXPHOS transcripts; [3]
  nucOX: −0.595
Cytochrome c; [3]
  cyt c: 1.032
[1]; [3]
  MTT: −0.726
[2]; [3]
  ΔΨm: −0.320
mtOXPHOS transcripts; [3]
  mitoOX: −1.691
C2C12 myotubes; [3]
  Viability: 0.677
OXPHOS gene expression; [3]
  GE-HTS: −1.008

## COc1cc2ccc(=O)oc2c2ccoc12 [sphondin]
Reactive oxygen species; [8]
  ROS: 1.692
nuOXPHOS transcripts; [8]
  nucOX: −0.605
Cytochrome c; [8]
  cyt c: 0.091
[1]; [8]
  MTT: −0.661
[2]; [8]
  ΔΨm: 0.136
mtOXPHOS transcripts; [8]
  mitoOX: −0.666
C2C12 myotubes; [8]
  Viability: −0.790
OXPHOS gene expression; [8]
  GE-HTS: −0.684

## COc1cccc2c1CCC1CC(=O)CCC21C (stereo not shown)
Reactive oxygen species; [3]
  ROS: −0.109
nuOXPHOS transcripts; [3]
  nucOX: −0.900
Cytochrome c; [3]
  cyt c: 1.307
[1]; [3]
  MTT: −1.068
[2]; [3]
  ΔΨm: 1.124
mtOXPHOS transcripts; [3]
  mitoOX: −0.612
C2C12 myotubes; [3]
  Viability: −0.060
OXPHOS gene expression; [3]
  GE-HTS: −0.872

## CC(C)NC[C@H](O)COc1cccc2ccccc12 [(S)-propranolol]
Reactive oxygen species; [9]
  ROS: −0.185
nuOXPHOS transcripts; [9]
  nucOX: 0.623
Cytochrome c; [9]
  cyt c: 0.349
[1]; [9]
  MTT: −0.351
[2]; [9]
  ΔΨm: −0.340
mtOXPHOS transcripts; [9]
  mitoOX: 1.161
C2C12 myotubes; [9]
  Viability: 0.307
OXPHOS gene expression; [9]
  GE-HTS: 0.857

## NCCc1ccc(S(=O)(=O)F)cc1 [4-aminoethylbenzenesulfonyl fluoride]
Reactive oxygen species; [6]
  ROS: 1.081
nuOXPHOS transcripts; [6]
  nucOX: −0.045
Cytochrome c; [6]
  cyt c: −0.485
[1]; [6]
  MTT: −1.406
[2]; [6]
  ΔΨm: −0.356
mtOXPHOS transcripts; [6]
  mitoOX: 0.018
C2C12 myotubes; [6]
  Viability: −0.304
OXPHOS gene expression; [6]
  GE-HTS: −0.016
